Literature values as cited in article PMC7953028 (Journal of Pesticide Science, 2021).

Experiments:
DmMet/DmTai complex = DmMet/DmTai complex (Drosophila melanogaster, UniProt O44118)
Sequence of DmMet/DmTai complex (O44118 1-716): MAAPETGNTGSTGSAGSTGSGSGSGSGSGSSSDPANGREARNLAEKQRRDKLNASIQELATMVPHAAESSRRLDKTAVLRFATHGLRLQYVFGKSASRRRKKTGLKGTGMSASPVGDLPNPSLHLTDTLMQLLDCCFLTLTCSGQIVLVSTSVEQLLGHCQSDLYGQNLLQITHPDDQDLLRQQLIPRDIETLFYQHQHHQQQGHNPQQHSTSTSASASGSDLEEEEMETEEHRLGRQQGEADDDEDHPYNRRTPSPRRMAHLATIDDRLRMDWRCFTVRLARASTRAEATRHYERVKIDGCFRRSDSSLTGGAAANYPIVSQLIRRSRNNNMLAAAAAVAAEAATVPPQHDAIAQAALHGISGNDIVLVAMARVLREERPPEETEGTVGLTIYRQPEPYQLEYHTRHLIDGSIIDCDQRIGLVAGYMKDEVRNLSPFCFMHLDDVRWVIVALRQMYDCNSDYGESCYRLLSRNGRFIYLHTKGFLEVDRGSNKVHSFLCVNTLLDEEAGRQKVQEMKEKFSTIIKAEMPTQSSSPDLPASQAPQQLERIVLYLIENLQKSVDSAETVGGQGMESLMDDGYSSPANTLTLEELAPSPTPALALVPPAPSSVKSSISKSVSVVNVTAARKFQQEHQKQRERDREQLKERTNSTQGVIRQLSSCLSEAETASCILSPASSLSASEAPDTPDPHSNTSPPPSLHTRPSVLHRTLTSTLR
Sequence of DmMet/DmTai complex (Q9VLD9 1-2026 partner): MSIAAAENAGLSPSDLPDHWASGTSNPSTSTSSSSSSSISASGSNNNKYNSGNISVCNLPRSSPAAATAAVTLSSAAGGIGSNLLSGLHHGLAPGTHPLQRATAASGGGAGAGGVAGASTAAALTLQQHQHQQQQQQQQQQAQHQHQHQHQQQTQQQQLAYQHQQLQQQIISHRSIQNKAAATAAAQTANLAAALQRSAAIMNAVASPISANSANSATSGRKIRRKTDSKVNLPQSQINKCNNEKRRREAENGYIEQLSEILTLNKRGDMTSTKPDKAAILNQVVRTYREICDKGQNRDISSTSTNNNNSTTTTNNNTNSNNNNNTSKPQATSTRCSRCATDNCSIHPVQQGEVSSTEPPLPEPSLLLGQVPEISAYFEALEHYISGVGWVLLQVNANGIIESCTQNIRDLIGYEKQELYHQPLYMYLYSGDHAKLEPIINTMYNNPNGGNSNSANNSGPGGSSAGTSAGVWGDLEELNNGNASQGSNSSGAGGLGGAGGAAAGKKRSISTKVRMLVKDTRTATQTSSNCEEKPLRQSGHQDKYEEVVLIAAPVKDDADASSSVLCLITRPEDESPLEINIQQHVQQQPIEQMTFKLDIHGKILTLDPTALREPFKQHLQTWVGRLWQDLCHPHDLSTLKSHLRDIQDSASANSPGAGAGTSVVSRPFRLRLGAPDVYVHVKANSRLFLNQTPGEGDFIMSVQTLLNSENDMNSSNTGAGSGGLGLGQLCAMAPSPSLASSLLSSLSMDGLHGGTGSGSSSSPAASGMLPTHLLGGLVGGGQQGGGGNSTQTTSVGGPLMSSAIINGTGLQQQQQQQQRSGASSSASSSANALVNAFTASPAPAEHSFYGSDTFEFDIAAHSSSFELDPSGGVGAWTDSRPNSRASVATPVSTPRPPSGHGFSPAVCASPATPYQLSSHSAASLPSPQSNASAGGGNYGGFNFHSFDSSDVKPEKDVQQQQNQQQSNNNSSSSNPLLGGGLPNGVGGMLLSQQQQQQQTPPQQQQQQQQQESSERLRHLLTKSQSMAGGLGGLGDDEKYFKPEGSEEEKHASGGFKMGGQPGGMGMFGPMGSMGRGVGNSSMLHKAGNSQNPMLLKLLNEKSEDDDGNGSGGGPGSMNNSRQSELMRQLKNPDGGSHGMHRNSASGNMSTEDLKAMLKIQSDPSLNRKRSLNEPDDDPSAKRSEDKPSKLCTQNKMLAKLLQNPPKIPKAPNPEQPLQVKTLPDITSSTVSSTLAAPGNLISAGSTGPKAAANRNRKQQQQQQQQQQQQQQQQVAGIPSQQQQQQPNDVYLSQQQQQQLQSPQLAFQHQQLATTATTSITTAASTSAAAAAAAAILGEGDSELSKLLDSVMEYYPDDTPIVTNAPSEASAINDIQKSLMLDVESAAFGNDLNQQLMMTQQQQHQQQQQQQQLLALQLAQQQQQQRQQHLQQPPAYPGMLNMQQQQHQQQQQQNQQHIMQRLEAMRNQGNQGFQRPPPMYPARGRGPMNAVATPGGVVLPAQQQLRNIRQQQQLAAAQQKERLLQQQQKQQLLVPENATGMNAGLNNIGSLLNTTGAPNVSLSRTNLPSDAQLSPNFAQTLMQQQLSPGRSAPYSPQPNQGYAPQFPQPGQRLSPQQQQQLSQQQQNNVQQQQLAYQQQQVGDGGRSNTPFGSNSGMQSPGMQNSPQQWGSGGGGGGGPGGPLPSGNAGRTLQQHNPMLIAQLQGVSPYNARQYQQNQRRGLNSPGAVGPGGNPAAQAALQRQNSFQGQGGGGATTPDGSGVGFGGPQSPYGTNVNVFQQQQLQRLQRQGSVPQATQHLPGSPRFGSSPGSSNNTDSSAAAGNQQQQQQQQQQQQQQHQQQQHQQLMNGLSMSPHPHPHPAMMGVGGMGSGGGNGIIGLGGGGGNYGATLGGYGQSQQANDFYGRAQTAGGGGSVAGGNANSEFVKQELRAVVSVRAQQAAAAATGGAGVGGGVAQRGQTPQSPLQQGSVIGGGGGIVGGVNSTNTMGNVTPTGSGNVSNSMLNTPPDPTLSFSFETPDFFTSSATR

| activity in reporter system relative to natural JHs (DmMet/DmTai complex) | Compound | log P |
| --- | --- | --- |
|  | COC(C)(C)CCC[C@H](C)C/C=C/C(C)=C/C(=O)OC(C)C (racemic) [methoprene] | 5.00 |
| outperformed natural JHs | c1ccc(Oc2ccc(OCCOc3nccs3)cc2)cc1 [Compound 1, 2-[2-(4-phenoxyphenoxy)ethoxy]thiazole] |  |
| outperformed natural JHs | C(#Cc1ccccn1)COc1ccc(Oc2ccccc2)cc1 [Compound 2, 2-[3-(4-phenoxyphenoxy)-1-propyn-1-yl)pyridine] |  |
